Values of other authors, collected in patent publication US20070087333A1, “Method to detect antigen-specific cytolytic activity” (Erasmus Universiteit Rotterdam, priority 2004, published 2007).

Columns and labels:
TCC-C10 CTL clone = conditions: NP418-426 epitope variants, 51Cr-release assay, reference [2]; read-out: EC50 value of the peptide variant (functional avidity)
TCC3180 CTL clone = conditions: NP418-426 epitope variants, 51Cr-release assay, reference [2]; for EC50: read-out: EC50 value of the peptide variant (functional avidity)

Row | Substance | EC50 (TCC-C10 CTL clone) | EC50 (TCC3180 CTL clone) | EC50 value of the peptide variant (functional avidity) (TCC3180 CTL clone)
1 | NP01: HLA-B*3501 epitope NP418-426 peptide variant of influenza NP strain A/NL/18/94 (LPFEKSTVM; Derived from influenza virus genes encoding NP strain A/NL/18/94 (NP01)) | ~0.8 nM | 0.5 nM | 
2 | NP02: HLA-B*3501 epitope NP418-426 peptide variant of influenza NP strain A/HK/2/68 (LPFDKPTIM; Derived from influenza virus genes encoding NP strain A/HK/2/68 (NP02)) | > 5000 nM | 26 nM | 
3 | NP03: HLA-B*3501 epitope NP418-426 peptide variant of influenza NP strain A/PR/8/34 (LPFDRTTIM; Derived from influenza virus genes encoding NP strain A/PR/8/34 (NP03)) | > 10000 nM |  | l lOO
